MIC, inhibition in vivo and inhibition data for 21 molecules are collected here from ChEMBL document CHEMBL2146439, “Synthesis and pharmacological evaluation of a novel series of 3-aryl-2-(2-substituted-4-methylthiazole-5-yl)thiazolidin-4-one as possible anti-inflammatory and antimicrobial agents” (2012).

Converted amounts (≈) assume the structure as drawn. The source made the active and inactive calls.

Format in all cases: functional
One assay relates to Staphylococcus aureus. As to the kind of experiment: Antibacterial activity against Staphylococcus aureus ATCC 25923 after 2 days by microdilution broth method. The note with it: ATCC 25923, 48 h. In general terms: In broth dilution the organism is exposed to a series of concentrations in liquid medium.
The subject of the next assay is Escherichia coli. The assay can be described thus: Antibacterial activity against Escherichia coli ATCC 25922 after 2 days by microdilution broth method. The note with it: ATCC 25922, 48 h.
Another assay concerns Aspergillus niger. The assay can be described thus: Antifungal activity against Aspergillus niger ATCC 9029 after 2 days by microdilution broth method. The note with it: ATCC 9029, 48 h.
The subject of the next assay is Candida albicans. The assay can be described thus: Antifungal activity against Candida albicans ATCC 10231 after 2 days by microdilution broth method. The conditions noted are these: ATCC 10231, 48 h.
In assay [1] the test system is Rattus norvegicus. The assay can be described thus: Antiinflammatory activity in Wistar albino rat assessed as inhibition of carrageenan-induced paw edema at 40 mg/kg, po administered 1 hr prior to carrageenan challenge measured 1 hr post carrageenan challenge relative to control. On the technique in general: In the carrageenan paw model, swelling and tenderness develop within hours.

Assay [2] deals with Rattus norvegicus. As to the kind of experiment: Antiinflammatory activity in Wistar albino rat assessed as inhibition of carrageenan-induced paw edema at 40 mg/kg, po administered 1 hr prior to carrageenan challenge measured 4 hrs post carrageenan challenge relative to control.
Assay [3] concerns Rattus norvegicus. The assay can be described thus: Antiinflammatory activity in Wistar albino rat assessed as inhibition of carrageenan-induced paw edema at 40 mg/kg, po administered 1 hr prior to carrageenan challenge measured 2 hrs post carrageenan challenge relative to control.

As a reminder, the MIC is the smallest concentration in the dilution series that meets the test's criterion for growth inhibition. High values mean a less susceptible organism, low ones a more susceptible organism. Regarding `Cc1nc(Cc2ccc(Cl)cc2)sc1C1SCC(=O)N1c1ccc(F)cc1` (configuration not stated), the MIC in the assay with Staphylococcus aureus is 59.7 µM (≈ 25 µg/mL); against Escherichia coli, 59.7 µM (≈ 25 µg/mL); with Aspergillus niger, 14.9 µM (≈ 6.25 µg/mL); in the assay on Candida albicans it was 14.9 µM (≈ 6.25 µg/mL).
In general, inhibition in vivo refers to the change of the read-out against control, counted positive when it falls. Consider `COc1ccc(N2C(=O)CSC2c2sc(-c3ccc(Cl)cc3)nc2C)cc1` (configuration not stated), for which the inhibition in vivo at 40 mg/kg came out at 54% in the assay on Rattus norvegicus [1], 59.1% with Rattus norvegicus [2] and 80.7% in the assay on Rattus norvegicus [3]. In addition, the MIC in the assay with Staphylococcus aureus, against Escherichia coli, against Aspergillus niger and in the assay with Candida albicans was 30 µM (≈ 12.5 µg/mL) in each case.
Take `Cc1nc(Cc2ccc(Cl)cc2)sc1C1SCC(=O)N1c1ccccc1` (configuration not stated): the inhibition entry with Rattus norvegicus [1], in the assay on Rattus norvegicus [2] and in the assay with Rattus norvegicus [3] was “inactive” each time. Besides, the MIC is 67.8 µM (≈ 27.2 µg/mL) in the assay on Staphylococcus aureus, 67.8 µM (≈ 27.2 µg/mL) in the assay with Escherichia coli, 33.9 µM (≈ 13.6 µg/mL) in the assay on Aspergillus niger and 33.9 µM (≈ 13.6 µg/mL) with Candida albicans.
For the molecule `Cc1nc(-c2ccc(Cl)cc2)sc1C1SCC(=O)N1c1ccc(F)c(Cl)c1` (configuration not stated), the results for the inhibition in vivo at 40 mg/kg with Rattus norvegicus [1], in the assay on Rattus norvegicus [2] and in the assay on Rattus norvegicus [3] were 53.4%, 65.1% and 45.1%, respectively. In addition, the MIC turned out to be 56.9 µM (≈ 25 µg/mL) in the assay with Staphylococcus aureus, 56.9 µM (≈ 25 µg/mL) against Escherichia coli, 114 µM (≈ 50 µg/mL) against Aspergillus niger and 114 µM (≈ 50 µg/mL) in the assay on Candida albicans.
On to `Cc1ccc(N2C(=O)CSC2c2sc(Cc3ccc(Cl)cc3)nc2C)cc1` (configuration not stated), for which the inhibition in vivo at 40 mg/kg with Rattus norvegicus [1] amounted to 59.9%; in the assay with Rattus norvegicus [2], 81.3%; with Rattus norvegicus [3] it was 61.4%. In addition, the MIC was determined as 60.2 µM (≈ 25 µg/mL) in the assay on Staphylococcus aureus, 60.2 µM (≈ 25 µg/mL) against Escherichia coli, 15.1 µM (≈ 6.25 µg/mL) against Aspergillus niger and 30.1 µM (≈ 12.5 µg/mL) in the assay on Candida albicans.
For the molecule `Cc1nc(Cc2ccc(Cl)cc2)sc1C1SCC(=O)N1c1ccc(Cl)cc1` (configuration not stated), the inhibition in vivo at 40 mg/kg in the assay with Rattus norvegicus [1] was found to be 48.9%; in the assay on Rattus norvegicus [2], 53.9%; with Rattus norvegicus [3], 40.1%. In addition, the minimal inhibitory concentration (MIC) was determined as 28.7 µM (≈ 12.5 µg/mL) in the assay with Staphylococcus aureus, 57.4 µM (≈ 25 µg/mL) against Escherichia coli, 28.7 µM (≈ 12.5 µg/mL) in the assay with Aspergillus niger and 28.7 µM (≈ 12.5 µg/mL) in the assay with Candida albicans.
Regarding `Cc1ccc(N2C(=O)CSC2c2sc(-c3ccccc3)nc2C)cc1` (configuration not stated), the inhibition in vivo at 40 mg/kg was 58.1% in the assay on Rattus norvegicus [1], 80.6% in the assay with Rattus norvegicus [2] and 60.1% in the assay with Rattus norvegicus [3]. Also, the MIC against Staphylococcus aureus worked out at 121 µM (≈ 44.3 µg/mL); in the assay with Escherichia coli, 60.4 µM (≈ 22.1 µg/mL); with Aspergillus niger, 30.2 µM (≈ 11.1 µg/mL); with Candida albicans, 30.2 µM (≈ 11.1 µg/mL).
As for `COc1ccc(N2C(=O)CSC2c2sc(-c3ccccc3)nc2C)cc1` (configuration not stated), the inhibition in vivo at 40 mg/kg was found to be 52.3% in the assay with Rattus norvegicus [1], 67.1% in the assay on Rattus norvegicus [2] and 48.1% in the assay with Rattus norvegicus [3]. Besides, the MIC in the assay on Staphylococcus aureus is 65.5 µM (≈ 25.1 µg/mL); against Escherichia coli it was 65.5 µM (≈ 25.1 µg/mL); in the assay on Aspergillus niger it was 32.8 µM (≈ 12.5 µg/mL); with Candida albicans, 32.8 µM (≈ 12.5 µg/mL).
Take `Cc1nc(Cc2ccc(Cl)cc2)sc1C1SCC(=O)N1c1ccc(F)c(Cl)c1` (configuration not stated): the results for the inhibition in vivo at 40 mg/kg in the assay with Rattus norvegicus [1], with Rattus norvegicus [2] and with Rattus norvegicus [3] were 40.7%, 68.9% and 45.1%, respectively. Further, the MIC with Staphylococcus aureus stood at 55.1 µM (≈ 25 µg/mL); against Escherichia coli, 55.1 µM (≈ 25 µg/mL); with Aspergillus niger, 27.6 µM (≈ 12.5 µg/mL); against Candida albicans, 27.6 µM (≈ 12.5 µg/mL).
Regarding `Cc1nc(-c2ccccc2)sc1C1SCC(=O)N1c1ccccc1` (configuration not stated), the inhibition in vivo at 40 mg/kg with Rattus norvegicus [1] worked out at 44.4%; with Rattus norvegicus [2] it was 63.7%; in the assay on Rattus norvegicus [3], 50.6%. For the same molecule, the MIC against Staphylococcus aureus came out at 70.9 µM (≈ 25 µg/mL); in the assay with Escherichia coli, 70.9 µM (≈ 25 µg/mL); against Aspergillus niger, 142 µM (≈ 50 µg/mL); in the assay with Candida albicans it was 142 µM (≈ 50 µg/mL).
In the case of `Cc1nc(-c2ccccc2)sc1C1SCC(=O)N1c1ccc(Cl)cc1` (configuration not stated), the values for the inhibition in vivo at 40 mg/kg with Rattus norvegicus [1], in the assay on Rattus norvegicus [2] and with Rattus norvegicus [3] were 54.8%, 80.8% and 59.1%, respectively. Also, the MIC is 129 µM (≈ 50 µg/mL) against Staphylococcus aureus, 64.6 µM (≈ 25 µg/mL) against Escherichia coli, 129 µM (≈ 50 µg/mL) against Aspergillus niger and 129 µM (≈ 50 µg/mL) against Candida albicans.
With `Cc1nc(-c2ccccc2)sc1C1SCC(=O)N1c1ccc(F)cc1` (configuration not stated), the inhibition in vivo at 40 mg/kg in the assay with Rattus norvegicus [1] was found to be 63.9%; in the assay with Rattus norvegicus [2], 85.3%; in the assay with Rattus norvegicus [3], 63.4%. The minimal inhibitory concentration (MIC) came to 67.5 µM (≈ 25 µg/mL) against Staphylococcus aureus, 33.7 µM (≈ 12.5 µg/mL) in the assay with Escherichia coli, 33.7 µM (≈ 12.5 µg/mL) in the assay on Aspergillus niger and 33.7 µM (≈ 12.5 µg/mL) in the assay on Candida albicans.
As for `OC(Cn1cncn1)(Cn1cncn1)c1ccc(F)cc1F` [FLUCONAZOLE], the MIC against Aspergillus niger came to 5.09 µM (≈ 1.56 µg/mL); with Candida albicans, 2.55 µM (≈ 0.781 µg/mL).
As for `Cc1nc(-c2ccc(Cl)cc2)sc1C1SCC(=O)N1c1ccccc1` (configuration not stated), the minimal inhibitory concentration (MIC) in the assay with Staphylococcus aureus is 32.3 µM (≈ 12.5 µg/mL); against Escherichia coli, 32.3 µM (≈ 12.5 µg/mL); against Aspergillus niger, 129 µM (≈ 50 µg/mL); in the assay with Candida albicans, 129 µM (≈ 50 µg/mL).
As for `O=C(O)c1cn(C2CC2)c2cc(N3CCNCC3)c(F)cc2c1=O` [CIPROFLOXACIN], the minimal inhibitory concentration (MIC) in the assay on Staphylococcus aureus was 4.7 µM (≈ 1.56 µg/mL); with Escherichia coli it was 2.35 µM (≈ 0.779 µg/mL).
As to `Cc1nc(-c2ccc(Cl)cc2)sc1C1SCC(=O)N1c1ccc(F)cc1` (configuration not stated), the results for the inhibition in vivo at 40 mg/kg in the assay with Rattus norvegicus [1], with Rattus norvegicus [2] and in the assay with Rattus norvegicus [3] were 63.4%, 67.6% and 63.9%, respectively. The MIC in the assay on Staphylococcus aureus amounted to 30.9 µM (≈ 12.5 µg/mL); with Escherichia coli, 15.4 µM (≈ 6.25 µg/mL); against Aspergillus niger, 61.7 µM (≈ 25 µg/mL); in the assay with Candida albicans, 30.9 µM (≈ 12.5 µg/mL).
As to `Cc1ccc(N2C(=O)CSC2c2sc(-c3ccc(Cl)cc3)nc2C)cc1` (configuration not stated), the inhibition in vivo at 40 mg/kg with Rattus norvegicus [1] came to 38.3%; in the assay on Rattus norvegicus [2], 63.9%; in the assay with Rattus norvegicus [3], 37.6%. Besides, the MIC in the assay with Staphylococcus aureus came to 31.2 µM (≈ 12.5 µg/mL); in the assay with Escherichia coli, 31.2 µM (≈ 12.5 µg/mL); with Aspergillus niger it was 31.2 µM (≈ 12.5 µg/mL); in the assay with Candida albicans it was 15.6 µM (≈ 6.25 µg/mL).
For the molecule `Cc1nc(-c2ccc(Cl)cc2)sc1C1SCC(=O)N1c1ccc(Cl)cc1` (configuration not stated), the inhibition in vivo at 40 mg/kg in the assay with Rattus norvegicus [1] was 69.3%; in the assay with Rattus norvegicus [2] it was 43.1%; in the assay with Rattus norvegicus [3], 45.7%. In addition, the minimum inhibitory concentration (MIC) in the assay on Staphylococcus aureus is 59.3 µM (≈ 25 µg/mL); in the assay on Escherichia coli, 29.7 µM (≈ 12.5 µg/mL); in the assay with Aspergillus niger it was 119 µM (≈ 50 µg/mL); against Candida albicans it was 119 µM (≈ 50 µg/mL).
`COc1ccc2c(c1)c(CC(=O)O)c(C)n2C(=O)c1ccc(Cl)cc1` [INDOMETHACIN]: the inhibition in vivo at 40 mg/kg was 70.2% in the assay on Rattus norvegicus [1], 87.3% in the assay on Rattus norvegicus [2] and 78.3% with Rattus norvegicus [3].
Take `COc1ccc(N2C(=O)CSC2c2sc(Cc3ccc(Cl)cc3)nc2C)cc1` (configuration not stated): the inhibition in vivo at 40 mg/kg was 20.9% in the assay with Rattus norvegicus [1], 55.9% in the assay with Rattus norvegicus [2] and 28.6% with Rattus norvegicus [3]. In addition, the MIC in the assay with Staphylococcus aureus stood at 58 µM (≈ 25 µg/mL); with Escherichia coli it was 58 µM (≈ 25 µg/mL); with Aspergillus niger it was 14.5 µM (≈ 6.25 µg/mL); in the assay on Candida albicans, 14.5 µM (≈ 6.25 µg/mL).
On to `Cc1nc(-c2ccccc2)sc1C1SCC(=O)N1c1ccc(F)c(Cl)c1` (configuration not stated), for which the values for the inhibition in vivo at 40 mg/kg in the assay on Rattus norvegicus [1], in the assay on Rattus norvegicus [2] and in the assay on Rattus norvegicus [3] were 55.9%, 28.6% and 20.9%, respectively. In addition, the MIC amounted to 61.7 µM (≈ 25 µg/mL) against Staphylococcus aureus, 61.7 µM (≈ 25 µg/mL) with Escherichia coli, 123 µM (≈ 50 µg/mL) against Aspergillus niger and 123 µM (≈ 50 µg/mL) against Candida albicans.
